Measured values published in patent publication US10058587B2, “Peptide composition for cancer treatment by inhibiting TRPV6 calcium channel activity” (priority 2008, dated 2018).
Where no end group is shown, it is not given here.

Legend:
K-562 = test: Apoptosis and cell viability in CML cell line (Example 12); assay type: cell-based, human; settings: 0, 10 and 100 uM, 5 to 7 days
Experimental: For this work, the concentrations of SorC13 and SorC27 used are 0 uM, 10 uM and 100 uM. The experiments extend over a 5 to 7 day period. All measurements are done in quadruplicate with both a blank (no cells) and control (vehicle, no peptide) used to correct the test measurements. The time-response data, and the dose-response data are plotted as means±standard error of the mean.
The cell line K-562 (from ATCC CCL-243) is grown under the recommended conditions and in culture media recommended by ATCC. The cell lines were cultured under sterile conditions at 37° C., in a humidified 5% CO2 atmosphere.
Induction of apoptosis and attendant decrease is observed in cell viability in the cancer cell lines. From the large increases in the activities of the caspase 3/7 activity, it is clear that there is a time dependent effect and a dose dependent effect on the induction of apoptosis.

[1] = test system: NIH-OVCAR-3 and SKOV3 cells; test: Ovarian adenocarcinoma xenograft model (Example 14, general results); assay type: in vivo, NOD/SCID mice; settings: 400 mg/kg body weight
Experimental: Optionally, to implant NIH-OVCAR-3 or SKOV3 tumor cells into NOD/SCID mice, cell cultures are centrifuged to pellet the cells, the supernatant is aspirated, the cell pellet is resuspended in 10 ml of growth media and the cell number is determined using a hemocytometer. The cells are then washed in appropriate media and re-suspended at a concentration of 5×10^7 cells/ml in media. Using a 27 gauge needle and 1 cc syringe, 0.1 ml of the cell suspension is injected subcutaneously into the flanks of the mice. Tumors are then permitted to develop in vivo until the majority reach 100-200 mm^3 in tumor volume, which typically requires 1-2 weeks following implantation. These tumors are used to produce tissue subcutaneous implants into NOD/SCID mice which after 2 days are treated with either the test peptides or CAT.
Tumor volumes (V) are calculated by caliper measurement using standard measurements of the width (W), length (L) and thickness (T) of tumors. Animals are randomized into treatment groups so that the median tumor volumes of each group were similar at the start of dosing. % T/C values, as a measure of efficacy, are determined where C refers to volume of control or untreated tumor, and T refers to volume of treated tumor.
Animals are intraperitoneally (i.p.) injected with this formulation at 10 ml per kg body weight on a schedule.

[2] = test system: OVCAR3 ovarian cancer cell line; test: Induction of apoptosis (APO-ONE caspase 3/7) and cell viability (CellTiter Blue); assay type: cell-based, human; parameters: key to Decline in cell viability: decreased (+); or not (−); settings: for apoptosis (treatment:control ratio) compared with CAT cocktail: CAT = 10 uM Paclitaxel, 20 mM carboplatin
Experimental: OVCAR-3 was cultured in RPMI 1640 medium supplemented with 1.0 mM sodium pyruvate, 0.01 mg/mL insulin and 10% (v/v) fetal bovine serum.
(§1) The levels of apoptotic induction and cell viability were determined by multiplexing the measurements for single samples. CellTiter Blue and APO-ONE assay systems from Promega allows the determination of cell viability correlated to cell number, and induction of apoptosis. This protocol uses a fluorgenic peptide that contains a peptide recognition-sequence for caspase 3 and caspase 7, […] proteolytic enzymes of the apoptosis cascade. The CellTiter Blue reagent was added to wells in a 96-well plate containing cells under test, immediately after addition of peptide solution or vehicle. About 5000 cells were plated into the wells the day before. At the chosen time (Day 1, Day 2 etc.) the fluorescence was measured at 590 nm (emission) after excitation at 560 nm. The caspase 3/7 activity was measured (485 nm Ex/527 nm Em) in the same wells after adding 120 uL of the Apo-ONE reagent, freeze fracturing at −80° C. for 1 hr, and incubating for 1 hr at room temperature.
(§2) For this work, the concentrations of SorC13 and SorC27 used were 0 uM, 1 uM, 10 uM and 100 uM. The experiments extended over a 5 to 7 day period. All measurements were done in quadruplicate with both a blank (no cells) and control (vehicle, no peptide) used to correct the test measurements. The time-response data, and the dose-response data were plotted as means±standard error of the mean. Any statistical comparisons were done with the Student's t-test or by ANOVA analysis over the dose course. The level of statistical significance was considered to be the 95% confidence interval (i.e., p≤0.05).
(§3) To compare the effect of the two SorC-peptides against the gold-standard treatment for ovarian cancers SorC13 or SorC27 was compared to treatment with a carboplatin and taxol (CAT) cocktail (10 uM Paclitaxel, 20 mM carboplatin) using the APO-ONE assay, which measures the combined activities of caspase 3 and caspase 7. Because of the mixed treatment (CAT), the effects were compared in terms of the ratio of treatment:control. If no effect was noted then the ratio=1. Comparisons of the treatment:control ratios were examined with the Student's t-test at a confidence level of 95%. Ratios of larger than a value of unity indicated a positive effect. The effects are illustrated in FIG. 5.

[3] = test system: OV90 ovarian cancer cell line; test: as above; assay type: cell-based, human; parameters: key to Decline in cell viability: decreased (+); or not (−)
Experimental: OV-90 was cultured in a 1:1 mixture of MCDB 105 medium and Medium 199 supplemented with 15% (v/v) fetal bovine serum.
as §1, §2, §3

[4] = test system: SKOV3 ovarian cancer cell line; test: as above; assay type: cell-based, human; parameters: key to Decline in cell viability: decreased (+); or not (−); settings: for apoptosis (treatment:control ratio) compared with CAT cocktail: CAT = 10 uM Paclitaxel, 20 mM carboplatin
Experimental: SKOV-3 was cultured in […] medium supplemented with 1.5 mM L-glutamine, 2.2 g/L sodium bicarbonate and 10% (v/v) fetal bovine serum.
as §1, §2, §3

[5] = test system: Human Non-Small Cell Lung Carcinoma (NSCLC) lines H1437 and H2087; test: Apoptosis (APO-ONE) and cell viability (CellTiter Blue) in NSCLC lines (Example 9); assay type: cell-based; settings: 10 and 100 uM
Experimental: The effects of the C-peptides on metastasizing human lung carcinoma cells are studied. […] In vitro studies employing SorC13 and SorC27 are carried out in metastatic lymph node-derived cell lines to determine their effect on Human Non-Small Cell Lung Carcinoma (NSCLC) lines H1437 (from ATCC CRL-5872) and H2087 (from ATCC CRL-5922). Both of these cell lines are adenocarcinomas derived from the metastaic site (lymph node) and from a stage 1 NSCLC lung cancer. Major lymphatics of interest which are usefully treated with peptides of the invention include superfacial cervical nodes, axillary nodes, brachial nodes, mesenteric nodes and inguinal nodes.
For the study, the cell lines are grown under the recommended conditions and in culture media recommended by ATCC. The cell lines are cultured under sterile conditions at 37° C., in a humidified 5% CO2 atmosphere.
Both the APO-ONE assay and the CellTiter Blue (Promega) are used on the cell lines to evaluate apoptosis and cell viability, respectively.

mealworm larvae = test: Mealworm larva paralytic bioassay; assay type: in vivo

KEFLHPSKVDLPR [SorC13, KEFLHPSKVDLPR]
induction of apoptosis and cell viability (K-562): induces apoptosis and decreases cell viability | growth rate of tumor cells [1]: substantially decreases the growth rate | apoptosis (treatment:control ratio) compared with CAT cocktail [2]: produced earlier and more intense apoptosis cascade than the CAT cocktail | Apoptosis Index (1 = no effect) ([2]; Day 4, SorC13 100 uM): 1.4 | Apoptosis Index (1 = no effect) ([2]; Day 5, SorC13 100 uM): 1.7 | Decline in cell viability ([2]; Day 5, SorC13 100 uM): + | apoptosis (treatment:control ratio) compared with CAT cocktail ([3]; CAT = 10 uM Paclitaxel, 20 mM carboplatin): produced earlier and more intense apoptosis cascade than the CAT cocktail | apoptosis (treatment:control ratio) compared with CAT cocktail [4]: produced earlier and more intense apoptosis cascade than the CAT cocktail | Apoptosis Index (1 = no effect) ([4]; Day 4, SorC13 100 uM): 2.2 | Apoptosis Index (1 = no effect) ([4]; Day 5, SorC13 100 uM): 2.7 | Decline in cell viability ([4]; Day 5, SorC13 100 uM): + | induction of apoptosis [5]: induce apoptosis | Physiol. effects in vivo (mealworm larvae); 5 mg/kg (mealworm larvae): Not paralytic

EGKLSSNDTEGGLCKEFLHPSKVDLPR [SorC27]
induction of apoptosis and cell viability (K-562): induces apoptosis and decreases cell viability | growth rate of tumor cells [1]: substantially decreases the growth rate | apoptosis (treatment:control ratio) compared with CAT cocktail [2]: produced apoptosis sooner and more intensely than the CAT cocktail | Apoptosis Index (1 = no effect) ([2]; Day 3, SorC27 10 uM): 2.2 | Apoptosis Index (1 = no effect) ([2]; Day 3, SorC27 100 uM): 2.2 | Apoptosis Index (1 = no effect) ([2]; Day 5, SorC27 10 uM): 4.1 | Apoptosis Index (1 = no effect) ([2]; Day 5, SorC27 100 uM): 6.3 | Decline in cell viability ([2]; SorC27): + | Apoptosis Index (1 = no effect) ([3]; Day 2, SorC27 100 uM): 1.8 | Apoptosis Index (1 = no effect) ([3]; Day 3, SorC27 1 uM): 1.2 | Apoptosis Index (1 = no effect) ([3]; Day 3, SorC27 10 uM): 1.9 | Apoptosis Index (1 = no effect) ([3]; Day 3, SorC27 100 uM): 1.9 | Decline in cell viability ([3]; SorC27): + | apoptosis (treatment:control ratio) compared with CAT cocktail [4]: produced apoptosis sooner and more intensely than the CAT cocktail | Apoptosis Index (1 = no effect) ([4]; Day 2, SorC27 10 uM): 2.7 | Apoptosis Index (1 = no effect) ([4]; Day 2, SorC27 100 uM): 1.5 | Apoptosis Index (1 = no effect) ([4]; Day 3, SorC27 1 uM): 1.7 | Apoptosis Index (1 = no effect) ([4]; Day 3, SorC27 10 uM): 2.4 | Apoptosis Index (1 = no effect) ([4]; Day 3, SorC27 100 uM): 2.7 | Decline in cell viability ([4]; SorC27): + | induction of apoptosis [5]: induce apoptosis | Physiol. effects in vivo (mealworm larvae); 5 mg/kg (mealworm larvae): Not paralytic
